What all share (assay type): in vivo
In test [1] the test system is BLA-DMS neural circuit. Nature of the test: Observation of hairs around the mouth after the tests. The following applies: 20 days after the last test day; vs saline-administered mice; FIG. 15. The text has this:
Additionally, after 20 days from the last day, it was observed that the hairs around the mouth of the Clozapine n-oxide (CNO)-administered mice fell out, compared to the saline-administered mice, indicating a phenotype caused by excessive grooming (see FIG. 15).

Test [2] concerns BLA-DMS neural circuit. Nature of the test: Hoarding test (two connected cages) in mice with activated BLA-DMS circuit. The conditions noted are these: day 13 evening to day 14 morning, no administration; vs saline-administered group; FIGS. 12-14. The text has this: A tool was manufactured by connecting two cages, with a passage in the middle thereof. The cages each have a dimension of width 25 cm×length 20 cm×height 12 cm (Jeung Do PNP). For the passage, a PVC cylinder with a dimension of diameter 5 cm and length 19 cm was used. A hole with a diameter of 5 cm was drilled 1 cm above the bottom of each cage, and a sill was installed on the PVC so that the length of the passage was 9.5 cm when a PVC cylinder was inserted into the holes. Mice were placed one per cage. In order for the mouse to recognize one cage as a home cage, beddings were placed on only one cage and the other cage was left in the default state, and the passageway to the opposite side of the home cage was blocked for one day. Then the next evening, the food in the home cage was removed, foods and toys were placed on the other cage, and the blocked passage was opened. At this time, water was placed in the home cage. Differences between the groups were compared in how many food pellets and toys were brought to the home cage on the morning of the last day of the experiment. Quantification was made of the brought weight for food and the brought number for toys. […]

For test [3], the system named is BLA-DMS neural circuit. Nature of the test: Hole board test in mice with chemogenetically (hM3Dq/CNO) activated BLA-DMS circuit. Here is the method: A solution of clozapine N-oxide (CNO; Tocris, Bristol, United Kingdom) in saline was intraperitoneally injected to mice. Taking into account the time it takes for the drug to act, the experiment was started after about 30 minutes. The drug was injected at a dose of 1 mg/kg at the same time every day.
As a control for CNO, saline was used. Saline was also intraperitoneally injected at the same volume and the experiments were conducted in the same condition as for the CNO group.
A square acrylic plate with 9 holes (3 cm in diameter) was made to be 30 cm wide and 30 cm long. A home base was constructed with a material different from the acryl plate. Based on the home base, water was placed on the right end of the acrylic plate, and 10% sucrose was placed on the other side. Afterward, a mouse was placed in the home base and monitored for 1 hour under a video camera. Remaining amounts of sucrose and water were recorded after completion of the test.
In the present disclosure, mice were divided into two groups: saline-administered and CNO-administered groups and subjected to the test at the same time every day for 18 days. After a four-day learning period, the fourth day was used as the base. During this period, the mice located the water and 10% sucrose on the hole board. Saline and CNO were administered to each group for a total of 12 days from the 5th day to the 16th day. On the 17th day, it was observed whether the OCD phenomenon was maintained even in the absence of administration of saline and CNO. Finally, on the 18th day, the mice were measured for cognitive flexibility after switching the positions of water and 10% sucrose. The video between the base and the 18th day (base to day 14) was analyzed. The analysis items included checking behavior (repetitive checking), repetitive nose poking (repetitively inserting the nose into the hole), excessive grooming (excessive washing—hair trimming), and flexibility (cognitive flexibility).
As an analysis method, the video was analyzed with the naked eye through the blind test. Through the blind test, the objectivity of the experiment was secured by preventing the experimenter from knowing about the saline-administered group and the CNO-administered group. A measurement was made of: the frequency of going to water and sucrose for the checking behavior (repetitive checking); the number of actions of inserting the nose into each hole for repetitive nose poking (repeatedly inserting the nose into the hole); the total length of grooming (duration) and the total number of times (frequency) of the start and end of grooming for excessive grooming (excessive washing—hair trimming); and the number of times to go to water and sucrose where the positions of the 18th day (day 14) were reversed, for the flexibility (cognitive flexibility).
AAV-retro Cre virus, which can make a retrograde infection, was injected to the DMS while AAV-DIO-hM3Dq, which specifically expresses Cre, was injected into the BLA. That is, advantage was taken of the principle that when the retrograde virus from the DMS expresses Cre in the neuron cell body (soma) of the BLA, the AAV-DIO-hM3Dq virus is induced to express hM3Dq thereat only in the presence of Cre. hM3Dq can activate neurons in cooperation with the membrane protein GPCR (G-protein-coupled receptors) upon stimulation with the drug CNO (clozapine n-oxide), whereby the specific activation of the BLA-DMS neural circuit can be achieved. After injecting different viruses into these two areas, it takes more than 4 weeks for the viruses to show their activities.
After 4 weeks, the learning process was performed for the first 4 days on the hole board without injection of CNO (clozapine n-oxide). During this process, the mice identify and remember the location of the water and 10% sucrose. The BLA-DMS circuit was continuously activated by injecting CNO (1 mg/kg) at the same time every day for 12 days, using the behavioral values of the 4th day as a reference. […]

The mark [4] stands for this setting: CNO 1 mg/kg i.p. daily vs saline, repeated 1-way ANOVA, FIG. 8.

From patent publication US20230000064A1, “OBSESSIVE-COMPULSIVE DISORDER ANIMAL MODEL AND PRODUCTION METHOD THEREOF” (KOREA UNIVERSITY RESEARCH AND BUSINESS FOUNDATION, priority 2019, published 2023) come the findings set out here.

Each structure is given as a SMILES string. Entries after “also recorded” stand apart in the source; their conditions may differ.

For the compound `C[N+]1([O-])CCN(C2=Nc3cc(Cl)ccc3Nc3ccccc32)CC1` [CNO, clozapine N-oxide], in the test on BLA-DMS neural circuit [1], the “hairs around the mouth (phenotype caused by excessive grooming)” value was “fell out; also recorded: disappear”. Further, in the test on BLA-DMS neural circuit [2], the “hoarding of food pellets brought to home cage” value is “significantly increased” and the “hoarding of toys brought to home cage” value was “significantly increased”. In the test with BLA-DMS neural circuit [3] (CNO 1 mg/kg i.p. daily for 12 days vs saline control, repeated 1-way ANOVA, FIG. 6), the “checking frequency of heading toward 10% sucrose” value is “significantly increased”. For the same compound, the “frequency of heading toward water (checking behavior)” value with BLA-DMS neural circuit [3] (CNO 1 mg/kg i.p. daily for 12 days vs saline-administered group, FIG. 6) was “no difference”. Also, the “repetitive nose poking frequency” value with BLA-DMS neural circuit [3] (CNO 1 mg/kg i.p. daily vs saline, repeated 1-way ANOVA, FIG. 7) is recorded as “greatly increased”. For the same compound, in the test on BLA-DMS neural circuit [3] (setting [4]), the grooming frequency entry was “significantly increased” and the “grooming time (duration)” value is “significantly increased”. In addition, the “amount of 10% sucrose drank” value in the test on BLA-DMS neural circuit [3] (CNO vs saline-administered group, FIG. 9) is listed as “no difference”. For the same compound, the “obsessive-compulsive disorder (checking and nose poking) on day 13 without administration” value with BLA-DMS neural circuit [3] (day 13, saline and CNO not administered) is reported as “maintained”. Besides, the “cognitive flexibility (times going to water and sucrose after positions swapped)” value in the test with BLA-DMS neural circuit [3] (day 14 (18th day), vs saline-administered group, Student t-test, FIG. 10) is listed as “significantly lower”.
